Measurements: patent US20260027068A1, “METHODS OF ADM[…]-KETAMINE” (Perception Neuroscience, Inc., priority 2022, published 2026)
Read-outs that look alike come from different tables or passages of the source.

How the values were obtained:
rats [1] = assay: Precipitated withdrawal from morphine; assay type: in vivo
[2] = system: cytochrome P450 (CYP) isoforms; assay: In vitro drug metabolism: CYP isoforms involved
rodents [3] = conditions: 10 mg/kg; cited from earlier work
CYP3A4 = assay: In vitro CYP induction
Pulse (vital signs) = assay: Pulse (vital signs)
Description: The Investigational Medicinal Product (IMP) R(−)-ketamine hydrochloride in sterile water for intravenous injection was investigated as an […] treatment of TRD. The International Union of Pure and Applied Chemistry (IUPAC) name is of the IMP is (2R)-2-(2-chlorophenyl)-2-(methylamino)cyclohexan-1-one. Subjects received the solution at either 30 mg or 60 mg dose, or a placebo. The IMP or placebo was administered on Day 1 as a single IV infusion via an electronic infusion pump over 40 minutes. The duration of study participation for each subject was up to 29 days including a screening period, a 3-day in-clinic visit, and 2 follow-up visits. 101 subjects were enrolled in approximately 20 study centers in the EU and the US.
Tympanic or temporal temperature, heart rate, blood pressure (SBP/DBP), respiratory rate, and SpO2 were assessed. Blood pressure and pulse measurements will be assessed with a completely automated device while the subject is supine or semi-supine. Manual techniques will be used only if an automated device is not available. Blood pressure and pulse measurements should be preceded by at least 5 minutes of rest for the subject in a quiet setting without distractions (e.g., television, cell phones). An abnormal blood pressure value at screening may be repeated once after 5 minutes of relaxation to determine the subject's eligibility. Blood pressure was recorded using the same arm and position (supine or semi-supine) throughout the study, where possible. Vital signs (to be taken before blood collection for laboratory tests) consisted of 1 pulse and 3 blood pressure measurements (3 consecutive blood pressure readings will be recorded at intervals of at least 1 minute). The average of the 3 blood pressure readings was recorded in the CRF. A pulse oximeter was used to measure peripheral capillary oxygen saturation (SpO2) continuously from pre-dose until 4-hours post-dose. A pulse oximeter was clipped onto the finger or foot of the subject, and light will be sent through the finger or foot and measured on the other side.
In these tables, baseline value is defined as the last non-missing value prior to study drug administration.

rodents [4] = conditions: cited from earlier work
healthy volunteers = conditions: up to 1 mg/kg IV or 1.8 mg/kg intramuscular; cited from earlier work
rats [5] = assay: Alcohol tolerance; assay type: in vivo
sigma receptor = conditions: cited from earlier work

CN[C@@]1(c2ccccc2Cl)CCCCC1=O.Cl [R(−)-ketamine, (2R)-2-(2-chlorophenyl)-2-(methylamino)cyclohexan-1-one]
Effect on symptoms of precipitated withdrawal from morphine (rats [1]): significantly ameliorated the symptoms of precipitated withdrawal from morphine | CYP isoforms involved in the metabolism [2]: primarily CYP2B6, CYP3A4/5, and CYP2C19 | Antidepressant effect compared with S(+)-ketamine (rodents [3]): longer acting and more potent effects than S(+)-ketamine | CYP3A4 induction (CYP3A4): inducer | Pulse: Mean (Pulse (vital signs); 30 mg, Day 1, 15 minutes): 69.4 beats/minute | Pulse: Median (Pulse (vital signs); 30 mg, Day 1, 15 minutes): 70.0 beats/minute | Pulse: Mean (Pulse (vital signs); 30 mg, Day 1, 40 minutes): 69.9 beats/minute | Pulse: Median (Pulse (vital signs); 30 mg, Day 1, 40 minutes): 70.0 beats/minute | Pulse: Mean (Pulse (vital signs); 30 mg, Day 1, 60 minutes): 67.2 beats/minute | Pulse: Median (Pulse (vital signs); 30 mg, Day 1, 60 minutes): 68.5 beats/minute | Pulse: Mean (Pulse (vital signs); 30 mg, Day 1, 2 hours): 70.7 beats/minute | Pulse: Median (Pulse (vital signs); 30 mg, Day 1, 2 hours): 70.0 beats/minute | Pulse: Mean (Pulse (vital signs); 30 mg, Day 1, 4 hours): 72.1 beats/minute | Pulse: Median (Pulse (vital signs); 30 mg, Day 1, 4 hours): 72.0 beats/minute | Pulse: Mean (Pulse (vital signs); 30 mg, Day 1, 6 hours): 70.7 beats/minute | Pulse: Median (Pulse (vital signs); 30 mg, Day 1, 6 hours): 72.0 beats/minute | Pulse: Mean (Pulse (vital signs); 30 mg, Day 2 - Discharge): 73.5 beats/minute | Pulse: Median (Pulse (vital signs); 30 mg, Day 2 - Discharge): 75.0 beats/minute | Pulse: Mean (Pulse (vital signs); 30 mg, Day 8): 74.1 beats/minute | Pulse: Median (Pulse (vital signs); 30 mg, Day 8): 74.0 beats/minute | Pulse: Mean (Pulse (vital signs); 30 mg, Day 15): 74.4 beats/minute | Pulse: Median (Pulse (vital signs); 30 mg, Day 15): 75.0 beats/minute | Pulse: Change from Baseline, Mean (Pulse (vital signs); 30 mg, to Day 1, 15 minutes): −0.4 beats/minute | Pulse: Change from Baseline, Median (Pulse (vital signs); 30 mg, to Day 1, 15 minutes): 0.0 beats/minute | Pulse: Change from Baseline, Mean (Pulse (vital signs); 30 mg, to Day 1, 40 minutes): −0.6 beats/minute | Pulse: Change from Baseline, Median (Pulse (vital signs); 30 mg, to Day 1, 40 minutes): −1.0 beats/minute | Pulse: Change from Baseline, Mean (Pulse (vital signs); 30 mg, to Day 1, 60 minutes): −2.5 beats/minute | Pulse: Change from Baseline, Median (Pulse (vital signs); 30 mg, to Day 1, 60 minutes): −3.5 beats/minute | Pulse: Change from Baseline, Mean (Pulse (vital signs); 30 mg, to Day 1, 2 hours): 0.2 beats/minute | Pulse: Change from Baseline, Median (Pulse (vital signs); 30 mg, to Day 1, 2 hours): −2.0 beats/minute | Pulse: Change from Baseline, Mean (Pulse (vital signs); 30 mg, to Day 1, 4 hours): 1.6 beats/minute | Pulse: Change from Baseline, Median (Pulse (vital signs); 30 mg, to Day 1, 4 hours): 2.0 beats/minute | Pulse: Change from Baseline, Mean (Pulse (vital signs); 30 mg, to Day 1, 6 hours): 0.2 beats/minute | Pulse: Change from Baseline, Median (Pulse (vital signs); 30 mg, to Day 1, 6 hours): 1.0 beats/minute | Pulse: Change from Baseline, Mean (Pulse (vital signs); 30 mg, to Day 2 - Discharge): 3.1 beats/minute | Pulse: Change from Baseline, Median (Pulse (vital signs); 30 mg, to Day 2 - Discharge): 2.0 beats/minute | Pulse: Change from Baseline, Mean (Pulse (vital signs); 30 mg, to Day 8): 2.1 beats/minute | Pulse: Change from Baseline, Median (Pulse (vital signs); 30 mg, to Day 8): 1.0 beats/minute | Pulse: Change from Baseline, Mean (Pulse (vital signs); 30 mg, to Day 15): 3.3 beats/minute | Pulse: Change from Baseline, Median (Pulse (vital signs); 30 mg, to Day 15): 2.0 beats/minute | Pulse: Mean (Pulse (vital signs); 60 mg, Day 1, 15 minutes): 67.3 beats/minute | Pulse: Median (Pulse (vital signs); 60 mg, Day 1, 15 minutes): 66.5 beats/minute | Pulse: Mean (Pulse (vital signs); 60 mg, Day 1, 40 minutes): 68.0 beats/minute | Pulse: Median (Pulse (vital signs); 60 mg, Day 1, 40 minutes): 68.0 beats/minute | Pulse: Mean (Pulse (vital signs); 60 mg, Day 1, 60 minutes): 64.9 beats/minute | Pulse: Median (Pulse (vital signs); 60 mg, Day 1, 60 minutes): 65.0 beats/minute | Pulse: Mean (Pulse (vital signs); 60 mg, Day 1, 2 hours): 68.2 beats/minute | Pulse: Median (Pulse (vital signs); 60 mg, Day 1, 2 hours): 70.0 beats/minute | Pulse: Mean (Pulse (vital signs); 60 mg, Day 1, 4 hours): 70.7 beats/minute | Pulse: Median (Pulse (vital signs); 60 mg, Day 1, 4 hours): 72.0 beats/minute | Pulse: Mean (Pulse (vital signs); 60 mg, Day 1, 6 hours): 72.6 beats/minute | Pulse: Median (Pulse (vital signs); 60 mg, Day 1, 6 hours): 71.0 beats/minute | Pulse: Mean (Pulse (vital signs); 60 mg, Day 2 - Discharge): 72.2 beats/minute | Pulse: Median (Pulse (vital signs); 60 mg, Day 2 - Discharge): 70.0 beats/minute | Pulse: Mean (Pulse (vital signs); 60 mg, Day 8): 73.3 beats/minute | Pulse: Median (Pulse (vital signs); 60 mg, Day 8): 70.0 beats/minute | Pulse: Mean (Pulse (vital signs); 60 mg, Day 15): 71.0 beats/minute | Pulse: Median (Pulse (vital signs); 60 mg, Day 15): 69.0 beats/minute | Pulse: Change from Baseline, Mean (Pulse (vital signs); 60 mg, to Day 1, 15 minutes): 0.0 beats/minute | Pulse: Change from Baseline, Median (Pulse (vital signs); 60 mg, to Day 1, 15 minutes): 0.5 beats/minute | Pulse: Change from Baseline, Mean (Pulse (vital signs); 60 mg, to Day 1, 40 minutes): −4.7 beats/minute | Pulse: Change from Baseline, Median (Pulse (vital signs); 60 mg, to Day 1, 40 minutes): −5.0 beats/minute | Pulse: Change from Baseline, Mean (Pulse (vital signs); 60 mg, to Day 1, 60 minutes): −2.3 beats/minute | Pulse: Change from Baseline, Median (Pulse (vital signs); 60 mg, to Day 1, 60 minutes): −1.0 beats/minute | Pulse: Change from Baseline, Mean (Pulse (vital signs); 60 mg, to Day 1, 2 hours): −4.5 beats/minute | Pulse: Change from Baseline, Median (Pulse (vital signs); 60 mg, to Day 1, 2 hours): −5.0 beats/minute | Pulse: Change from Baseline, Mean (Pulse (vital signs); 60 mg, to Day 1, 4 hours): −2.0 beats/minute | Pulse: Change from Baseline, Median (Pulse (vital signs); 60 mg, to Day 1, 4 hours): −1.0 beats/minute | Pulse: Change from Baseline, Mean (Pulse (vital signs); 60 mg, to Day 1, 6 hours): −0.3 beats/minute | Pulse: Change from Baseline, Median (Pulse (vital signs); 60 mg, to Day 1, 6 hours): 0.5 beats/minute | Pulse: Change from Baseline, Mean (Pulse (vital signs); 60 mg, to Day 2 - Discharge): −0.6 beats/minute | Pulse: Change from Baseline, Median (Pulse (vital signs); 60 mg, to Day 2 - Discharge): −1.0 beats/minute | Pulse: Change from Baseline, Mean (Pulse (vital signs); 60 mg, to Day 8): 0.6 beats/minute | Pulse: Change from Baseline, Median (Pulse (vital signs); 60 mg, to Day 8): 0.0 beats/minute | Pulse: Change from Baseline, Mean (Pulse (vital signs); 60 mg, to Day 15): −1.7 beats/minute | Pulse: Change from Baseline, Median (Pulse (vital signs); 60 mg, to Day 15): 0.0 beats/minute | Conditioned place preference (rodents [4]; 20 mg/kg): did not cause conditioned place preference | Conditioned place preference (rodents [4]; 40 mg/kg): did cause conditioned place preference | Psychotomimetic and dissociative-like effects compared with S(+)-ketamine (healthy volunteers): less pronounced psychotomimetic and dissociative-like effects | Effect on alcohol tolerance (rats [5]): mitigated the effects of alcohol tolerance | Higher affinity to the sigma receptor compared with S(+)-ketamine (sigma receptor): 15 fold
